The numbers were not newly measured in US6239177A, “Tranilast-containing preparation for external application and method of producing the same” (Lead Chemical Co., Ltd., priority 1996, dated 2001), which cites them from elsewhere.

Read-outs that look alike come from different tables or passages of the source.

For series [1], the system named is carrageenan-induced granulation tissue. The following applies: for drug concentration in the skin tissue: one hour after final administration, 60 min.
The test system of series [2] is keloid and hypertrophic scar. The following applies: Ichikawa 1992; Suzawa 1992.

In the case of `COc1ccc(C=CC(=O)Nc2ccccc2C(=O)O)cc1OC` [tranilast, N-(3,4-dimethoxycinnamoyl)-anthranilic acid], the solubility in water result is listed as “extremely sparingly soluble”. In addition, the “drug concentration in the skin tissue” value in series [1] (oral 50 mg/kg for consecutive 14 days) is 4.2 ± 0.4 µg/g. The “drug concentration in the skin tissue” value in series [1] (oral 100 mg/kg for consecutive 14 days) was 10.3 ± 0.9 µg/g. Besides, the “drug concentration in the skin tissue” value in series [1] (oral 200 mg/kg for consecutive 14 days) was 23.17 ± 1.7 µg/g. Besides, the “inhibitory effect (carrageenan-induced granulation tissue)” value in series [1] (oral 50, 100, and 200 mg/kg for consecutive 14 days) is listed as “dose-dependent inhibitory effect was observed”. For the same compound, the “solubility in dimethyl formamide, pyridine, dioxane, and acetone” value (dimethyl formamide, pyridine, dioxane, acetone) is recorded as “soluble”. Besides, the “solubility in a kind of fatty acid and its ester, animal and vegetable oils and fats, terpene compounds, and alcohols” value (fatty acids/esters, oils and fats, terpenes, alcohols) was “can be solved to some extent”. For the same compound, the “solubility in methanol, ethanol, ethyl acetate” value (methanol, ethanol, ethyl acetate) is “hardly soluble”. Where the note is “listed as Tranilast”, the solubility in water entry is given as “sparingly soluble”. The “pharmaceutical effect on keloid and hypertrophic scar” value in series [2] is given as “excellent pharmaceutical effect”.
